Measurements as given in patent publication US5972939A, “Cyclopentene derivatives useful as antagonists of the motilin receptor” (Ortho-McNeil Pharmaceutical, Inc., priority 1998, dated 1999).

Legend:
[1] = test system: rabbit duodenum smooth muscle (motilin and erythromycin induced contractions); test: inhibition of motilin (porcine) induced contractions in rabbit duodenum smooth muscle; format: cell-based; details: Oryctolagus cuniculus; @ 1.0 μM
Experimental: Select compounds of the invention were evaluated for their ability to inhibit motilin and erythromycin induced contractions in the rabbit duodenum smooth muscle. Rabbits were fasted 24-48 h and euthanized. The venral midline incision was made approximately 7.5 cm above the umbilicus upto the xyphoid process, exposing the upper peritoneal cavity. The first 8 cm. of the duodenum starting at the pyloric valve was quickly removed and placed in Krebs solution containing NaCl, ([…]), KCl (4.7 mM), MgSO4 *7 H2 O (1.2 mM), CaCl2 *2 H2 O (2.4 mM), KH2 PO4 (1 mM), D-glucose (10 mM), and NaHCO3 (24 mM). The lumen was flushed with Krebs and excess tissue was removed. The tissue was cut lengthwise, splayed open with the longitudinal muscle layer facing up, and the longitudinal muscle layer was released away from the circular muscle and cut into 3×30 mm strips. A pre-tied 4-0 silk ligature with a loop was placed at the middle of the strip and the strip was folded over the loop so the strip was half its original length. The tissues were mounted in a 10 mL tissue bath (Radnotti Glass Technology, Inc., Monrovia, Calif.) containing Krebs solution gassed with 95% O2 5% CO2 at 37° C. […] The tissues were allowed to equilibrate for 60-90 min with 2-3 wash cycles. The tissues were equilibrated with two initial contractions induced by a concentration of acetylcholine (1×10^-4 M) that produced a maximal contraction (0.1 mM), with the highest taken as 100% maximall contraction of that tissue. Base line and response levels are expressed as grams tension developed and as a percent of the response to acetylcholine. The test compounds were dissolved in DMSO (2 mM/100% DMSO) and applied to the prepared strips 5-15 minutes prior to the addition of porcine motilin. After addition, the tension is constantly monitored over 5 min and the maximum tension is recorded. The percent contraction was measured at four ascending concentrations and where appropriate IC50s were determined.

[2] = target: T1, motilin receptors located on the colon of mature rabbits (Oryctolagus cuniculus, UniProt G1T803); test: competition with radiolabeled (125I) porcine motilin for the motilin receptors of rabbit colon; format: binding; details: for IC50: rabbit colon, 125I motilin, read-out: IC50
T1 construct: The colon from mature New Zealand rabbits was removed, dissected free from the mucosa and serosa layers, and diced into small pieces; from tissue; host or cells: colon smooth muscle of mature New Zealand rabbits, crude membrane homogenate
Experimental: The compounds of the invention were tested for their ability to compete with radiolabeled motilin (porcine) for the motilin receptors located on the colon of mature rabbits. The colon from mature New Zealand rabbits was removed, dissected free from the mucosa and serosa layers, and diced into small pieces. […] The homogenate was centrifuged at 1000×g for 15 min. and the supernatant discarded. The pellet was washed twice before being suspended in homogenizing buffer. This crude homogenate is then passed first through a 19 gauge needle then a 23 gauge needle to further suspend the material and stored as -80° C. […] After 30 min, at 30° C., the material was cooled on ice and centrifuged at 13,000×g for 1 minute. The pellet was washed with 1 mL 0.9% saline and centrifuged at 13,000×g for 15 seconds. The pellet was washed again with cold saline and the supernatant was removed. The pellet was counted in the gamma counter to determine the percentage of […] motilin and thereby the percent inhibition of the test compound. IC50s were determined for some compounds by standard techniques.

[3] = test system: motilin receptor; details: Weber et al. 1993; cited from earlier work
[4] = test system: humans; details: intravenous, Christofides et al. 1979; cited from earlier work
[5] = test system: smooth muscle in the stomach tissue of dogs, rabbits, and humans and in the colon of rabbits; details: cited from earlier work

T1 sequence (G1T803 1-400): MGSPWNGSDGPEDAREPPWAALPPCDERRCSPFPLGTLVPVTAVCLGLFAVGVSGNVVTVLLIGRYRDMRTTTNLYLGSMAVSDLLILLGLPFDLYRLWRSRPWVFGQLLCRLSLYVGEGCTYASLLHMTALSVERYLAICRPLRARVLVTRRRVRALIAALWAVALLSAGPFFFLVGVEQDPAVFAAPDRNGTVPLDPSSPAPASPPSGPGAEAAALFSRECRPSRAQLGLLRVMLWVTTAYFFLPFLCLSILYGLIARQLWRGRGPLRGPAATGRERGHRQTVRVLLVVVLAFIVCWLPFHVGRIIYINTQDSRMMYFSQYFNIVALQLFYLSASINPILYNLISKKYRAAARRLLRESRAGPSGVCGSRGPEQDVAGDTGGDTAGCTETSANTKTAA

SMILES | inhibition at 1 µM [1] [%] | IC50 [2] [nM] | further results
O=C(c1ccc(F)c(F)c1)N(CC1=CC(Cc2ccccc2)(NC(=O)C(Cl)(Cl)Cl)CC1)c1cccc(OCCN2CCOCC2)c1 (stereo not drawn) [Compound 62] | 65 | 50 | –
O=C(Nc1cccc(F)c1)N(CC1=CC(Cc2ccccc2)(NC(=O)C(Cl)(Cl)Cl)CC1)c1cccc(OCCN2CCOCC2)c1 (stereo not drawn) [Compound 63] | 63.8 | 37 | –
COc1ccc(CC2(NC(=O)C(Cl)(Cl)Cl)C=C(CN(C(=O)c3ccc(F)cc3)c3cccc(OCCN4CCOCC4)c3)CC2)cc1 (stereo not drawn) [Compound 65] | 72 | 56 | –
COc1ccc(CC2(NC(=O)C(Cl)(Cl)Cl)C=C(CN(C(=O)c3ccccc3)c3cccc(OCCN4CCOCC4)c3)CC2)cc1 (stereo not drawn) [Compound 66] | 58 | 56 | –
O=C(Nc1ccccc1)N(CC1=CC(Cc2ccc(F)cc2)(NC(=O)C(Cl)(Cl)Cl)CC1)c1cccc(OCCN2CCOCC2)c1 (stereo not drawn) [Compound 67] | 25.7 | – | inhibition at 0.25 µM ([2]; @ 0.25 μM): 34%
O=C(Nc1ccccc1)N(CC1=CC(Cc2cccc(Cl)c2)(NC(=O)C(Cl)(Cl)Cl)CC1)c1cccc(OCCN2CCOCC2)c1 (stereo not drawn) [Compound 68] | 51 | – | inhibition at 0.1 µM ([2]; @ 0.1 μM): 70%
CC[C@H]1OC(=O)[C@H](C)[C@@H](O[C@H]2C[C@@](C)(OC)[C@@H](O)[C@H](C)O2)[C@H](C)[C@@H](O[C@@H]2O[C@H](C)C[C@H](N(C)C)[C@H]2O)[C@](C)(O)C[C@@H](C)C(=O)[C@H](C)[C@@H](O)[C@]1(C)O [erythromycin] | – | – | biological responses compared with motilin [3]: elicits biological responses that are comparable to motilin itself
CC[C@H](C)[C@H](NC(=O)[C@@H]1CCCN1C(=O)[C@@H](NC(=O)[C@@H](N)Cc1ccccc1)C(C)C)C(=O)N[C@@H](Cc1ccccc1)C(=O)N[C@H](C(=O)N[C@@H](Cc1ccc(O)cc1)C(=O)NCC(=O)N[C@@H](CCC(=O)O)C(=O)N[C@@H](CC(C)C)C(=O)N[C@@H](CCC(N)=O)C(=O)N[C@@H](CCCNC(=N)N)C(=O)N[C@@H](CCSC)C(=O)N[C@@H](CCC(N)=O)C(=O)N[C@@H](CCC(=O)O)C(=O)N[C@@H](CCCCN)C(=O)N[C@@H](CCC(=O)O)C(=O)N[C@@H](CCCNC(=N)N)C(=O)N[C@@H](CC(N)=O)C(=O)N[C@@H](CCCCN)C(=O)NCC(=O)N[C@@H](CCC(N)=O)C(=O)O)[C@@H](C)O [motilin] | – | – | gastric emptying and gut hormone release [4]: increase gastric emptying and gut hormone release; smooth muscle contractions [5]: induces smooth muscle contractions
